Test system: skin cancer cell line A431
Assay: In vitro survival assay (MTT) for anti-skin cancer effects
Type: cell-based
Details: A-431, A431 human epidermoid carcinoma cell line, 48 hours treatment, read-out: IC50 (half inhibition concentration), survival of skin cancer cells
Description: Inhibiting effects of skin cancer cells by cyclohexenone compounds of Antrodia camphorata from example 1 were assessed according to the anticancer-drug screening model of National Cancer Institute (NCI). The compound 4-hydroxy-2,3-dimethoxy-6-methyl-5 -(3,7,11-trimethyl-dodeca-2,6,10-trienyl)-cyclohex-2-enone from example 1 was added into the culture media of skin cancer cell line A431 to determine the survival rates. Survival of cell was analyzed using MTT assay. A431 cell line was a human epidermoid carcinoma cell line.
MTT assay is commonly used to analyze cell proliferation, survival rate of viable cells and cytotoxicity. MTT (3[4,5-dimethylthiazol-2-yl]-2,5-diphenyltetrazolium bromide) is a yellow dye which can be converted to water-insoluble purple formazan on the reductive cleavage of its tetrazolium ring by the succinate tetrazolium reductase in mitochondria of cells. The amount of formazan produced is used to detect the number of viable cells and calculate the survival rates. […]
Afterward, 2.5 mg/ml of MTT solution was added to each well and incubated in the dark for 4 hours, followed by the addition of 100 μl of lysis buffer to stop the reaction. The absorbances were measured at 570 nm with an ELISA Reader to determine the survival rates.

Compound: COC1=C(OC)C(O)C(C/C=C(\C)CC/C=C(\C)CCC=C(C)C)C(C)C1=O (stereo not shown) [formula 2, 4-hydroxy-2,3-dimethoxy-6-methyl-5-(3,7,11-trimethyl-dodeca-2,6,10-trienyl)-cyclohex-2-enone]
- IC50: 0.18 µg/mL
